The supplement of paper PMC6045584
± gives the standard deviation of the averaged measurements.

Legend:
PACLITAXEL [1] = compound: T1, CC(=O)O[C@H]1C(=O)[C@@]2(C)[C@H]([C@H](OC(=O)c3ccccc3)[C@]3(O)C[C@H](OC(=O)[C@H](O)[C@@H](NC(=O)c4ccccc4)c4ccccc4)C(C)=C1C3(C)C)[C@]1(OC(C)=O)CO[C@@H]1C[C@@H]2O [PACLITAXEL]; test: surviving fraction relative to DMSO-only wells; higher = less growth inhibition; conditions: exposure time: 5 days
How it was run: (§1)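 Log-phase tumour cells were seeded at 250–500 per well in 384-well plates and, from 24 hours after seeding, exposed continuously for five days to inhibitors at 0.5, 1, 5, 10, 50, 100, 500 and 1000 nM. Surviving fraction is CellTiter-Glo luminescence normalised to the median of DMSO-only wells. Luminescence was measured after 10 minutes at room temperature, and only lines screened three times with replicate Pearson r >0.7 and median Z' >0.3 were kept.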

CARBOPLATIN [2] = compound: T2, O=C(O)C1(C(=O)O)CCC1.[NH2-].[NH2-].[Pt+2] [CARBOPLATIN]; test: as above; conditions: exposure time: 5 days
How it was run: as §1

[3] = compound: CC(=O)c1c(C)c2cnc(Nc3ccc(N4CCNCC4)cn3)nc2n(C2CCCC2)c1=O; test: as above; conditions: exposure time: 5 days
How it was run: as §1

CELECOXIB [4] = compound: T3, Cc1ccc(-c2cc(C(F)(F)F)nn2-c2ccc(S(N)(=O)=O)cc2)cc1 [CELECOXIB]; test: as above; conditions: exposure time: 5 days
How it was run: as §1

OSI-906 [5] = compound: T4, C[C@]1(O)C[C@@H](c2nc(-c3ccc4ccc(-c5ccccc5)nc4c3)c3c(N)nccn32)C1 [OSI-906]; test: as above; conditions: exposure time: 5 days
How it was run: as §1

[6] = compound: CC(=O)NCC(=O)N1[C@@H]2CC[C@H]1c1ccc(Nc3ncc(C(F)(F)F)c(NC4CCC4)n3)cc12; test: as above; conditions: exposure time: 5 days
How it was run: as §1

YM155 [7] = compound: T5, COCC[n+]1c2c(n(Cc3cnccn3)c1C)C(=O)c1ccccc1C2=O [YM155]; test: as above; conditions: exposure time: 5 days
How it was run: as §1

GEFITINIB [8] = compound: T6, COc1cc2ncnc(Nc3ccc(F)c(Cl)c3)c2cc1OCCCN1CCOCC1 [GEFITINIB]; test: as above; conditions: exposure time: 5 days
How it was run: as §1

CAMPTOTHECIN [9] = compound: T7, CC[C@@]1(O)C(=O)OCc2c1cc1n(c2=O)Cc2cc3ccccc3nc2-1 [CAMPTOTHECIN]; test: as above; conditions: exposure time: 5 days
How it was run: as §1

PACLITAXEL [10] = compound: T1, PACLITAXEL; test: area under dose-response curve of surviving fraction (unscaled, Aref=0) (surviving fraction x log10(nM)); higher = more resistant; conditions: exposure time: 5 days; dose range 0.5-1000 nM
How it was run: (§2)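 Tumour cell lines in 384-well plates were exposed to eight inhibitor concentrations, from 0.5 to 1000 nM, for five days, and viability was read by CellTiter-Glo luminescence in three screens per line. Signals were normalised to DMSO-only wells, and 3-parameter logistic regression in the drc R package fitted dose-response survival curves to the surviving fractions. Area under the curve is given as the unscaled activity area. That area is taken over log10 dose with Aref = 0.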

CARBOPLATIN [11] = compound: T2, CARBOPLATIN; test: as above; conditions: exposure time: 5 days; dose range 0.5-1000 nM
How it was run: as §2

[12] = compound: CC(=O)c1c(C)c2cnc(Nc3ccc(N4CCNCC4)cn3)nc2n(C2CCCC2)c1=O; test: as above; conditions: exposure time: 5 days; dose range 0.5-1000 nM
How it was run: as §2

CELECOXIB [13] = compound: T3, CELECOXIB; test: as above; conditions: exposure time: 5 days; dose range 0.5-1000 nM
How it was run: as §2

OSI-906 [14] = compound: T4, OSI-906; test: as above; conditions: exposure time: 5 days; dose range 0.5-1000 nM
How it was run: as §2

[15] = compound: CC(=O)NCC(=O)N1[C@@H]2CC[C@H]1c1ccc(Nc3ncc(C(F)(F)F)c(NC4CCC4)n3)cc12; test: as above; conditions: exposure time: 5 days; dose range 0.5-1000 nM
How it was run: as §2

YM155 [16] = compound: T5, YM155; test: as above; conditions: exposure time: 5 days; dose range 0.5-1000 nM
How it was run: as §2

GEFITINIB [17] = compound: T6, GEFITINIB; test: as above; conditions: exposure time: 5 days; dose range 0.5-1000 nM
How it was run: as §2

CAMPTOTHECIN [18] = compound: T7, CAMPTOTHECIN; test: as above; conditions: exposure time: 5 days; dose range 0.5-1000 nM
How it was run: as §2

For SAOS2 BONE, the surviving fraction (PACLITAXEL [1]; 0.5 nM) was 1.08 ± 0.043, the surviving fraction (PACLITAXEL [1]; 1 nM) was 1.06 ± 0.018 and the surviving fraction (PACLITAXEL [1]; 5 nM) was 0.46 ± 0.043. It also gave a surviving fraction (PACLITAXEL [1]; 10 nM) of 0.165 ± 0.013, a surviving fraction (PACLITAXEL [1]; 50 nM) of 0.0527 ± 0.004 and a surviving fraction (PACLITAXEL [1]; 100 nM) of 0.0527 ± 0.00058. For the same test system, the surviving fraction (PACLITAXEL [1]; 500 nM) was 0.0447 ± 0.0063, the surviving fraction (PACLITAXEL [1]; 1000 nM) was 0.0557 ± 0.0063 and the surviving fraction (CARBOPLATIN [2]; 0.5 nM) was 1.1 ± 0.048. The surviving fraction (CARBOPLATIN [2]; 1 nM) was 1.18 ± 0.014, the surviving fraction (CARBOPLATIN [2]; 5 nM) was 1.18 ± 0.059 and the surviving fraction (CARBOPLATIN [2]; 10 nM) was 1.16 ± 0.073. The surviving fraction (CARBOPLATIN [2]; 50 nM) was 1.15 ± 0.051, the surviving fraction (CARBOPLATIN [2]; 100 nM) was 1.06 ± 0.11 and the surviving fraction (CARBOPLATIN [2]; 500 nM) was 1.09 ± 0.097. For the same test system, the surviving fraction (CARBOPLATIN [2]; 1000 nM) was 0.943 ± 0.22, the surviving fraction ([3]; 0.5 nM) was 1.07 ± 0.062 and the surviving fraction ([3]; 1 nM) was 1.06 ± 0.034. The surviving fraction ([3]; 5 nM) was 1.13 ± 0.051, the surviving fraction ([3]; 10 nM) was 1.09 ± 0.037 and the surviving fraction ([3]; 50 nM) was 1.1287 ± 0.00058. The surviving fraction ([3]; 100 nM) was 1.138 ± 0.0069, the surviving fraction ([3]; 500 nM) was 1.13 ± 0.065 and the surviving fraction ([3]; 1000 nM) was 1.07 ± 0.013. The surviving fraction (CELECOXIB [4]; 0.5 nM) was 1.14 ± 0.078, the surviving fraction (CELECOXIB [4]; 1 nM) was 1.05 ± 0.026 and the surviving fraction (CELECOXIB [4]; 5 nM) was 1.187 ± 0.01. For the same test system, the surviving fraction (CELECOXIB [4]; 10 nM) was 1.14 ± 0.06, the surviving fraction (CELECOXIB [4]; 50 nM) was 1.22 ± 0.07 and the surviving fraction (CELECOXIB [4]; 100 nM) was 1.23 ± 0.054. It also gave a surviving fraction (CELECOXIB [4]; 500 nM) of 1.11 ± 0.021, a surviving fraction (CELECOXIB [4]; 1000 nM) of 1.09 ± 0.018 and a surviving fraction (OSI-906 [5]; 0.5 nM) of 0.82 ± 0.027. It also gave a surviving fraction (OSI-906 [5]; 1 nM) of 0.858 ± 0.013, a surviving fraction (OSI-906 [5]; 5 nM) of 0.804 ± 0.085 and a surviving fraction (OSI-906 [5]; 10 nM) of 0.838 ± 0.045. It also gave a surviving fraction (OSI-906 [5]; 50 nM) of 1.06 ± 0.018, a surviving fraction (OSI-906 [5]; 100 nM) of 0.877 ± 0.066 and a surviving fraction (OSI-906 [5]; 500 nM) of 0.594 ± 0.016. The surviving fraction (OSI-906 [5]; 1000 nM) was 0.522 ± 0.057, the surviving fraction ([6]; 0.5 nM) was 1.03 ± 0.017 and the surviving fraction ([6]; 1 nM) was 1.045 ± 0.0052. It also gave a surviving fraction ([6]; 5 nM) of 1.08 ± 0.069, a surviving fraction ([6]; 10 nM) of 1.06 ± 0.092 and a surviving fraction ([6]; 50 nM) of 1.03 ± 0.065. For the same test system, the surviving fraction ([6]; 100 nM) was 0.704 ± 0.049, the surviving fraction ([6]; 500 nM) was 0.157 ± 0.0075 and the surviving fraction ([6]; 1000 nM) was 0.0957 ± 0.0029. It also gave a surviving fraction (YM155 [7]; 0.5 nM) of 1.16 ± 0.021, a surviving fraction (YM155 [7]; 1 nM) of 1.1 ± 0.097 and a surviving fraction (YM155 [7]; 5 nM) of 0.39 ± 0.035. For the same test system, the surviving fraction (YM155 [7]; 10 nM) was 0.237 ± 0.0095, the surviving fraction (YM155 [7]; 50 nM) was 0.053 ± 0.0069 and the surviving fraction (YM155 [7]; 100 nM) was 0.0327 ± 0.006. For the same test system, the surviving fraction (YM155 [7]; 500 nM) was 0.0223 ± 0.00058, the surviving fraction (YM155 [7]; 1000 nM) was 0.0293 ± 0.00058 and the surviving fraction (GEFITINIB [8]; 0.5 nM) was 1.11 ± 0.021. It also gave a surviving fraction (GEFITINIB [8]; 1 nM) of 1.04 ± 0.065, a surviving fraction (GEFITINIB [8]; 5 nM) of 1.21 ± 0.035 and a surviving fraction (GEFITINIB [8]; 10 nM) of 1.09 ± 0.05. The surviving fraction (GEFITINIB [8]; 50 nM) was 1.12 ± 0.061, the surviving fraction (GEFITINIB [8]; 100 nM) was 1.13 ± 0.06 and the surviving fraction (GEFITINIB [8]; 500 nM) was 1.01 ± 0.038. The surviving fraction (GEFITINIB [8]; 1000 nM) was 0.907 ± 0.08, the surviving fraction (CAMPTOTHECIN [9]; 0.5 nM) was 0.794 ± 0.046 and the surviving fraction (CAMPTOTHECIN [9]; 1 nM) was 0.829 ± 0.024. The surviving fraction (CAMPTOTHECIN [9]; 5 nM) was 0.677 ± 0.055, the surviving fraction (CAMPTOTHECIN [9]; 10 nM) was 0.415 ± 0.018 and the surviving fraction (CAMPTOTHECIN [9]; 50 nM) was 0.129 ± 0.006. The surviving fraction (CAMPTOTHECIN [9]; 100 nM) was 0.059 ± 0.005, the surviving fraction (CAMPTOTHECIN [9]; 500 nM) was 0.0293 ± 0.0032 and the surviving fraction (CAMPTOTHECIN [9]; 1000 nM) was 0.0267 ± 0.00058. The “area under dose-response curve” value (PACLITAXEL [10]) was 1.1, the “area under dose-response curve” value (CARBOPLATIN [11]) was 3.68 and the “area under dose-response curve” value [12] was 3.65. The “area under dose-response curve” value (CELECOXIB [13]) was 3.78, the “area under dose-response curve” value (OSI-906 [14]) was 2.83 and the “area under dose-response curve” value [15] was 2.47. The “area under dose-response curve” value (YM155 [16]) was 1.05, the “area under dose-response curve” value (GEFITINIB [17]) was 3.62 and the “area under dose-response curve” value (CAMPTOTHECIN [18]) was 1.2.
